Reference: PMC4524497 (Bioorganic & medicinal chemistry, 2015)

Experiments:
σ2 receptor = target: T1, σ2 receptor (Rattus norvegicus, UniProt Q5U3Y7); experiment: σ2 receptor binding assay with [^3H]DTG in the presence of; details: for Ki: Ki-σ2, [^3H]DTG + 1 μM (+)-pentazocine, rat liver membranes, mean ± SEM
T1 sequence (Q5U3Y7 1-176): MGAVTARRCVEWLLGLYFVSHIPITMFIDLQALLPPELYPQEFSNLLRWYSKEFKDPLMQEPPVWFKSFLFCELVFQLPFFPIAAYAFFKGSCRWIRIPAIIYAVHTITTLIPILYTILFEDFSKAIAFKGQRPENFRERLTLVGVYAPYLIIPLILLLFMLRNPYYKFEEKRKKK

human VAChT = target: T2, human VAChT (Homo sapiens, UniProt Q16572); experiment: VAChT competitive binding assay with [^3H]vesamicol
T2 sequence (Q16572 1-532): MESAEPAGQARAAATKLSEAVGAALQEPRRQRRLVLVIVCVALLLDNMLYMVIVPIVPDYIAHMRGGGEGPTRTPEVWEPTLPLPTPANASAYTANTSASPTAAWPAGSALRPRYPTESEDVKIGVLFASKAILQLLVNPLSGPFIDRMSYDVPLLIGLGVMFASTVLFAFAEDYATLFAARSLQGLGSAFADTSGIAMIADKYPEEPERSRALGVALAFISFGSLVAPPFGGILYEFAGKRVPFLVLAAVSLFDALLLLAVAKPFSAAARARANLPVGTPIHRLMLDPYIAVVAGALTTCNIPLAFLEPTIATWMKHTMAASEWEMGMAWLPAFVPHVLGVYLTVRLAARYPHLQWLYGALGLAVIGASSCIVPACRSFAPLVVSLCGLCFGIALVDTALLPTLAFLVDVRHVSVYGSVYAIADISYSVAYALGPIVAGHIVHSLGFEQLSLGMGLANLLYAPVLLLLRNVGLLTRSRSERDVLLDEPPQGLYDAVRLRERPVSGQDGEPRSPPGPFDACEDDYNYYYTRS

[1] = post-injection, human brain SPECT; cited from earlier work
VAChT = details: brain of both NHP and human subjects; cited from earlier work

In the case of `O=C(c1ccc(F)cc1)C1CCN(C2Cc3c(cccc3OCCF)CC2O)CC1` (racemic) [Compound 18a, (1-(8-(2-Fluoroethoxy)-3-hydroxy-1,2,3,4-tetrahydronaphthalen-2-yl)piperidin-4-yl)(4-fluorophenyl)methanone], the Ki (σ2 receptor) is reported as > 10 µM.
In the case of `O=C(c1ccc(F)cc1)C1CCN(C2Cc3c(cccc3OCCF)CC2O)CC1` (single isomer, unassigned; (-)) [(-)-18a, (-)-(1-(8-(2-Fluoroethoxy)-3-hydroxy-1,2,3,4-tetrahydronaphthalen-2-yl)piperidin-4-yl)(4-fluorophen-yl)-methanone], the “selectivity for VAChT versus σ receptors” value (human VAChT) is reported as > 10,000 fold, the Ki (σ2 receptor) is reported as > 10 µM and the “VAChT/ σ2” value (σ2 receptor; selectivity ratio) is reported as >10,000.
For `OC1Cc2cccc([123I])c2CC1N1CCC(c2ccccc2)CC1` (single isomer, unassigned; (-)) [[^123I]IBVM, (-)-5-[^123I]iodo-benzovesamicol], the “time required for quantification of peak uptake in the target regions” value [1] is listed as “at least 6 hr”.
In the case of `O[C@@H]1Cc2cccc(OCC[18F])c2C[C@H]1N1CCC(c2ccccc2)CC1` [[^18F]FEOBV, [^18F]fluoroethoxy-benzovesamicol], the “delayed equilibrium of brain kinetics” value (VAChT) is listed as > 360 min p.i.
